This is an account of results in patent US10913711B2, “Potent and selective inhibitors of monoamine transporters; method of making; and use thereof” (priority 2013, dated 2021).

Test [1] addresses NET (Rattus norvegicus (Rat), UniProt Q9WTR4). The test can be described thus: Norepinephrine Transporter Binding Assay ([3H]Nisoxetine, rat frontal cortex membranes). The protocol:
Binding affinities of all compounds were evaluated at the DAT, SERT, and NET in rat brain membranes using previously described methods:
Norepinephrine Transporter Binding Assay. Brains from male Sprague-Dawley rats weighing 200-225 g (Taconic Labs, Germantown, N.Y.) were removed, frontal cortex dissected and rapidly frozen. Membranes were prepared by homogenizing tissues in 20 volumes (w/v) of 50 mM Tris containing 120 mM NaCl and 5 mM KCl, (pH 7.4 at 25° C.), using a Brinkman Polytron and centrifuged at 50,000×g for 10 min at 4° C. The resulting pellet was resuspended in buffer, recentrifuged and resuspended in buffer to a concentration of 80 mg/mL. Ligand binding experiments were conducted in assay tubes containing 0.5 mL buffer for 60 min at 0-4° C. […] Nonspecific binding was determined using 1 mM desipramine. Incubations were terminated by rapid filtration through Whatman GF/B filters, presoaked in 0.05% polyethylenimine, using a Brandel R48 filtering manifold (Brandel Instruments Gaithersburg, Md.). The filters were washed twice with 3 mL cold buffer and transferred to scintillation vials. Beckman Ready Value (3.0 mL) was added and the vials were counted using a Beckman 6000 liquid scintillation counter (Beckman Coulter Instruments, Fullerton, Calif.). […] All compounds were tested as racemic mixtures.

Test [2] concerns the target human DAT wild type (Homo sapiens (Human), UniProt Q01959). The experiment in a line: [3H]DA uptake inhibition in intact COS7 cells, hDAT WT. Type of test: cell-based. The following applies: [3H]DA uptake inhibition potency, read-out: hDAT WT Ki [S.E. interval].
In test [3] the target is human DAT A480T mutant (Homo sapiens (Human), UniProt Q01959, A480T). The test can be described thus: [3H]DA uptake inhibition in intact COS7 cells, hDAT A480T. The following applies: read-out: hDAT A480T Ki [S.E. interval], [3H]DA uptake inhibition potency.
Sequence of human DAT A480T mutant (Q01959 whole entry A480T): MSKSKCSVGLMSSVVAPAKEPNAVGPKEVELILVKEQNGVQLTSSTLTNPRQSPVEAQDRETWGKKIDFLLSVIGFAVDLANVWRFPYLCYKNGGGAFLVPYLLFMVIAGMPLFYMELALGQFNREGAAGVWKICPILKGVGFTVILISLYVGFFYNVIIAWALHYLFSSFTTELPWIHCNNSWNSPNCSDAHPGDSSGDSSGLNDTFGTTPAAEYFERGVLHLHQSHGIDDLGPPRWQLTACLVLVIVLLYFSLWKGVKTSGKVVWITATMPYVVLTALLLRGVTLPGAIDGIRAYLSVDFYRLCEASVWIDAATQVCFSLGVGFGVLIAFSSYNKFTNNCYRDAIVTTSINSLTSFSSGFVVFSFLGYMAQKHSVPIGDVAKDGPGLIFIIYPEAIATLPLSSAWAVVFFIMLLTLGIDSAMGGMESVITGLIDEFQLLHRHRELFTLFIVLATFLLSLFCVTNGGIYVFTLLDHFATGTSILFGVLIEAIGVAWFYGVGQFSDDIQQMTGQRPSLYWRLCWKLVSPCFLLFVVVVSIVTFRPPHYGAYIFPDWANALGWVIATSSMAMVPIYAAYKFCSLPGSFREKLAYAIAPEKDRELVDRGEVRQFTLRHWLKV

Molecules are shown by their SMILES. Read-outs that look alike come from different tables or passages of the source.

Sequence of NET (Q9WTR4 entry or part of it): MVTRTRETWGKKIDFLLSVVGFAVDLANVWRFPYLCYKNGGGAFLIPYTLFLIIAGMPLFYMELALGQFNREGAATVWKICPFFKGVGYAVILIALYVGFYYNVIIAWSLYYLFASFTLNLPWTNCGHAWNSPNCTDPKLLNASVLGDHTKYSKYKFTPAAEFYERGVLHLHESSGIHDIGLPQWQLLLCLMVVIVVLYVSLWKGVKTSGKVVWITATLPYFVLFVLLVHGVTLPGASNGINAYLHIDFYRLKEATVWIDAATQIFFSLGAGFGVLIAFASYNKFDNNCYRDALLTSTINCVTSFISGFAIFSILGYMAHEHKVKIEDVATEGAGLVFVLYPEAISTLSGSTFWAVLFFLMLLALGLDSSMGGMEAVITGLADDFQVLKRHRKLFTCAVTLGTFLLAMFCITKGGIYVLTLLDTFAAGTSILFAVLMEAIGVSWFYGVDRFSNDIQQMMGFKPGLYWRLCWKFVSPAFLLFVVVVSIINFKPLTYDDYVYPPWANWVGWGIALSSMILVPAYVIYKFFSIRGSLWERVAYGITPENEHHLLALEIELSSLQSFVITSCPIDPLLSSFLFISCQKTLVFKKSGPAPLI

A word on the Ki: it is the dissociation constant of the complex between target and ligand, obtained from inhibition or displacement. `Cc1ccc(C(c2ccc(C)cc2)[S+]([O-])CC(N)=O)cc1` (centres unmarked) [Compound 3a, 2-((Di-p-tolylmethyl)sulfinyl)acetamide]: in test [1], the Ki is greater than 100 µM.

On to `OC(Cc1ccccc1)CN1CCN(CCSC(c2ccc(F)cc2)c2ccc(F)cc2)CC1` (racemic) [Compound 9j, 1-(4-(2-((Bis(4-fluorophenyl)methyl)thio)ethyl)piperazin-1-yl)-3-phenylpropan-2-ol], for which, in test [1], the Ki is 1.95 ± 0.227 µM.

Molecule `CCCNC(=O)CSC(c1ccc(Br)cc1)c1ccc(Br)cc1` [Compound 2n, 2-((Bis(4-bromophenyl)methyl)thio)-N-propylacetamide] had a Ki in test [1] of 10.6 µM.

Take `OC(Cc1ccccc1)CN1CCN(CCSC(c2ccccc2)c2ccccc2)CC1` (racemic) [Compound 9g, 1-(4-(2-(Benzhydrylthio)ethyl)piperazin-1-yl)-3-phenylpropan-2-ol]: the Ki in test [1] was 1.43 ± 0.118 µM.

`O=C(CSC(c1ccc(Br)cc1)c1ccc(Br)cc1)NCC1CC1` [Compound 2q, 2-((Bis(4-bromophenyl)methyl)thio)-N-(cyclopropylmethyl)acetamide] registered a Ki in test [1] greater than 100 µM.

In turn, `[O-][S+](CCN1CCN(CCCc2ccccc2)CC1)C(c1ccc(F)cc1)c1ccc(F)cc1` (centres unmarked) [Compound 8b, 1-(2-((Bis(4-fluorophenyl)methyl)sulfinyl)ethyl)-4-(3-phenylpropyl)piperazine] showed a Ki in test [1] of 4.28 ± 0.343 µM.

Consider `c1ccc(CCCN2CCN(CCSC(c3ccccc3)c3ccccc3)CC2)cc1` [Compound 7a, 1-(2-(Benzhydrylthio)ethyl)-4-(3-phenylpropyl)piperazine], for which, in test [1] (Table 5, piperazinyl derivatives, rat brain membranes, read-out: NET Ki ± SEM), the Ki was 0.988 ± 0.0228 µM.

Molecule `NC(=O)CSC(c1cccc(Cl)c1)c1cccc(Cl)c1` [Compound 2e, 2-((Bis(3-chlorophenyl)methyl)thio)acetamide] yielded a Ki in test [1] of 34 µM.

`CC(O)CN1CCN(CC[S+]([O-])C(c2ccc(F)cc2)c2ccc(F)cc2)CC1` (racemic) [Compound 10d, 1-(4-(2-((Bis(4-fluorophenyl)methyl)sulfinyl)ethyl)piperazin-1-yl)propan-2-ol] returned a Ki in test [1] greater than 100 µM.

Turning to `NC(=O)CSC(c1ccccc1)c1ccccc1` [Compound 2a, 2-(Benzhydrylthio)acetamide], in test [1], the Ki was greater than 100 µM.

As to `CC(O)CN1CCN(CCSC(c2ccccc2)c2ccccc2)CC1` (racemic) [Compound 9a, 1-(4-(2-(Benzhydrylthio)ethyl)piperazin-1-yl)propan-2-ol], the affinity in test [1], expressed as Ki, was 44.5 ± 2.4 µM.

`O=C(CSC(c1ccc(Br)cc1)c1ccc(Br)cc1)NCCCCc1ccccc1` [Compound 2z, 2-((Bis(4-bromophenyl)methyl)thio)-N-(4-phenylbutyl)acetamide] yielded an inhibition constant (Ki) in test [1] greater than 100 µM. In addition, the “NET Ki (nM) ± S.E.M.” value in test [1] (Table 1, thioacetamide and sulfinylacetamide analogs, rat brain membranes, racemic mixtures) is “no displacement”.

In the case of `NC(=O)C[S+]([O-])C(c1cccc(F)c1)c1cccc(F)c1` (centres unmarked) [Compound 3c, 2-((Bis(3-fluorophenyl)methyl)sulfinyl)acetamide], the Ki in test [1] is greater than 100 µM.

For `NC(=O)C[S+]([O-])C(c1cccc(Cl)c1)c1cccc(Cl)c1` (centres unmarked) [Compound 3d, 2-((Bis(3-chlorophenyl)methyl)sulfinyl)acetamide], in test [1], the Ki is greater than 100 µM.

As for `CCCCNC(=O)CSC(c1ccccc1)c1ccccc1` [Compound 2r, 2-(Benzhydrylthio)-N-butylacetamide], the inhibitory constant (Ki) in test [1] is greater than 0.1 µM.

With `O=C(CSC(c1ccc(F)cc1)c1ccc(F)cc1)NCC1CC1` [Compound 2p, 2-((Bis(4-fluorophenyl)methyl)thio)-N-(cyclopropylmethyl)acetamide], in test [1], the Ki was found to be 57.6 µM.

With `C=CCNC(=O)CSC(c1ccccc1)c1ccccc1` [Compound 2j, N-Allyl-2-(benzhydrylthio)acetamide], the Ki in test [1] is greater than 230 µM.

For the molecule `NC(=O)C[S+]([O-])C(c1ccccc1)c1cccc(Br)c1` (centres unmarked) [Compound 3e, 2-(((3-Bromophenyl)(phenyl)methyl)sulfinyl)acetamide], the inhibition constant Ki in test [1] is greater than 100 µM.

`CNC(=O)C[S+]([O-])C(c1ccccc1)c1ccccc1` (centres unmarked) [Compound 3f, 2-(Benzhydrylsulfinyl)-N-methylacetamide] registered an inhibition constant (Ki) in test [1] greater than 100 µM.

In test [1], `CCCCNCC[S+]([O-])C(c1ccccc1)c1ccccc1` (centres unmarked) [Compound 5b, N-(2-(benzhydrylsulfinyl)ethyl)butan-1-amine] displayed a Ki greater than 140 µM.

`O=C(CSC(c1ccc(F)cc1)c1ccc(F)cc1)NCCCc1ccccc1` [Compound 2v, 2-((Bis(4-fluorophenyl)methyl)thio)-N-(3-phenylpropyl)acetamide] displayed a Ki in test [1] greater than 100 µM.

In test [1], `Fc1ccc(C(SCCN2CCN(CCCc3ccccc3)CC2)c2ccc(F)cc2)cc1` [Compound 7b, 1-(2-((Bis(4-fluorophenyl)methyl)thio)ethyl)-4-(3-phenylpropyl)piperazine] showed a Ki of 1.89 ± 0.116 µM.

For `[O-][S+](CCN1CCN(CCCc2ccccc2)CC1)C(c1ccccc1)c1ccccc1` (centres unmarked) [Compound 8a, 1-(2-(Benzhydrylsulfinyl)ethyl)-4-(3-phenylpropyl)piperazine], in test [1], the Ki turned out to be 5.54 ± 0.808 µM.

In test [1], `[O-][S+](CCNCCCc1ccccc1)C(c1ccc(Cl)cc1)c1ccc(Cl)cc1` (centres unmarked) [Compound 5d, N-(2-((bis(4-chlorophenyl)methyl)sulfinyl)ethyl)-3-phenylpropan-1-amine] gave a Ki of 5.8 µM.

As for `O=C(CSC(c1ccccc1)c1ccccc1)NCC1CC1` [Compound 2o, 2-(Benzhydrylthio)-N-(cyclopropylmethyl)acetamide], in test [1], the inhibition constant (Ki) is greater than 100 µM.

In test [1], `O=C(C[S+]([O-])C(c1ccc(Br)cc1)c1ccc(Br)cc1)NCCCc1ccccc1` (centres unmarked) [Compound 3g, 2-(Bis(4-bromophenyl)methylsulfinyl)-N-(3-phenylpropyl)acetamide] came in with a Ki greater than 100 µM.

For the molecule `CCCCNCCSC(c1ccccc1)c1ccccc1` [Compound 4e, N-(2-(benzhydrylthio)ethyl)butan-1-amine], the affinity in test [1], expressed as Ki, was 11.5 µM.

In test [1], `[O-][S+](CCN1CCN(CC(O)Cc2ccccc2)CC1)C(c1ccccc1)c1ccccc1` (racemic) [Compound 10g, 1-(4-(2-(Benzhydrylsulfinyl)ethyl)piperazin-1-yl)-3-phenylpropan-2-ol] displayed a Ki of 25.3 ± 2.04 µM.

In the case of `CCCNC(=O)CSC(c1ccccc1)c1ccccc1` [Compound 2k, 2-(Benzhydrylthio)-N-propylacetamide], the Ki in test [1] turned out to be 55.9 µM.

Consider `CNC(=O)CSC(c1ccccc1)c1ccccc1` [Compound 2g, 2-(Benzhydrylthio)-N-methylacetamide], for which the Ki came out at 5.5 µM in test [2], 3.6 µM in test [3] and 27.3 µM in test [1].

The molecule `CC(O)CN1CCN(CC[S+]([O-])C(c2ccccc2)c2ccccc2)CC1` (racemic) [Compound 10a, 1-(4-(2-(Benzhydrylsulfinyl)ethyl)piperazin-1-yl)propan-2-ol] came in with a Ki in test [1] greater than 100 µM.

In test [1], `[O-][S+](CCNCCCc1ccccc1)C(c1ccc(F)cc1)c1ccc(F)cc1` (centres unmarked) [Compound 5c, N-(2-((bis(4-fluorophenyl)methyl)sulfinyl)ethyl)-3-phenylpropan-1-amine] came in with a Ki of 3.28 µM.

In turn, `O=C(CSC(c1ccc(Br)cc1)c1ccc(Br)cc1)NCCCc1ccccc1` [Compound 2x, 2-((Bis(4-bromophenyl)methyl)thio)-N-(3-phenylpropyl)acetamide] displayed a Ki in test [1] of 36.3 µM.

`CCCNC(=O)CSC(c1ccc(F)cc1)c1ccc(F)cc1` [Compound 2l, 2-((Bis(4-fluorophenyl)methyl)thio)-N-propylacetamide] displayed a Ki in test [1] of 61.7 µM.

For `c1ccc(CCCNCCSC(c2ccccc2)c2ccccc2)cc1` [Compound 4f, N-(2-(benzhydrylthio)ethyl)-3-phenylpropan-1-amine], in test [1], the affinity corresponds to a Ki of 3.91 µM.
